Columns and labels:
interleukin-1 (IL-1) = assay: IL-1 activity of LPS-induced peritoneal macrophages of adjuvant arthritis rats (thymocyte bioassay); assay type: in vivo, rat; settings: AA rats, 5 mg; 570 nm; model group 0.87 ± 0.03
Experimental: Fizzer complete adjuvant (from Sigma Co.) was emulsified and injected subcutaneously and sterilely 0.1 ml into the right meta voix pedis of each rat (♂, 160±20 g) to establish a model of adjuvant-induced arthritis.
Preparation of peritoneal macrophage: Execute rats at 25th days after injecting complete adjuvant, then rapidly inject proper amount of Hank's solution into the belly of them, and rub their abdominal wall several times before collecting peritoneal fluid. Wash it with Hank's solution containing 5% calf serum twice, then prepare 1×10^6/mL cell suspension with wholly swelling RPMI1640. Transfer into a culture plate with 24 wells, 1 ml each well. Incubate them in a 5% CO2 incubator overnight at a temperature of 37° C., abandon the supernatant fluid, wash with pre-warmed Hank's solution containing 5% calf serum at 37° C. twice, and remove un-adherent cell. The residue was peritoneal macrophage.
2. IL-1 induction: Add 10 μg/mL lipopolysaccharide (LPS) to the above culture plate with 24 wells, then incubate for 24 hours, centrifuge (2000 rpm, 5 min), collect the […], and filter with micropore filter. This solution was the IL-1 sample to be detected. 3. […]

[1] = system: DTH T cell subsets (L3T4+, Lyt-2+); assay: DTH T cell subsets of mouse (DNFB, splenic lymphocytes, immunofluorescence); settings: 5 mg

## C[C@]12C=CC(=O)C=C1CC[C@@H]1[C@@H]2C(=O)C[C@@]2(C)[C@H]1CC[C@]2(O)C(=O)CO [Prednisone]
interleukin-1 (IL-1)
  OD Value (IL-1 activity): 0.34 ± 0.02
[1]
  Cells number L3T4^+: 59.6 ± 7.5%
  Cells number Lyt-2^+: 56.2 ± 3.8 %
  L3T4^+/Lyt-2^+: 1.21 ± 0.14

Source: patent US7662412B2, “Traditional Chinese medicine composition to treat rheumatoid arthritis and preparation method thereof” (priority 2005, dated 2010)
